Values quoted from earlier work as cited in patent publication US20030009042A1, “Method for making hydroxy-25-ene-vitamin D compounds” (Bone Care International, Inc., priority 1998, published 2003).
Read-outs that look alike come from different tables or passages of the source.

Key:
[1] = oral, 0.5 μg/day, postmenopausal women
[2] = not given; remark: listed apart in the source

Row | Compound | intestinal calcium absorption and calcium balance [1] | effects on bone mass or mineral content (dosage levels below 0.5 μg/day) | efficacy in preventing or restoring loss of bone mass or bone mineral content (dosage ranges taught in the '596 Patent) | toxicity, percentage of the patients ([2]; 1 μg/day) | toxicity, percentage of the patients ([2]; 2 μg/day) | efficacy (bone mass) (1 μg/day, Japan, population with low calcium intake) | efficacy in increasing bone mass (two μg/day, patients exhibiting senile osteoporosis)
1 | C=C1/C(=C\C=C2/CCC[C@]3(C)[C@@H]([C@H](C)CCCC(C)(C)O)CC[C@@H]23)C[C@@H](O)C[C@@H]1O [1α,25-dihydroxyvitamin D3] | improved intestinal calcium absorption as well as calcium balance | no effects are observed | at best, modest efficacy |  |  |  | 
2 | C=C1/C(=C\C=C2/CCC[C@]3(C)[C@@H]([C@H](C)CCCC(C)C)CC[C@@H]23)C[C@@H](O)C[C@@H]1O [1α-hydroxyvitamin D3] |  |  |  | approximately 20% | approximately 67% | efficacy is found | found to have efficacy in increasing bone mass
